One assay has as its target T1, IKKε (Homo sapiens, UniProt Q14164).
T1 sequence (Q14164 1-716): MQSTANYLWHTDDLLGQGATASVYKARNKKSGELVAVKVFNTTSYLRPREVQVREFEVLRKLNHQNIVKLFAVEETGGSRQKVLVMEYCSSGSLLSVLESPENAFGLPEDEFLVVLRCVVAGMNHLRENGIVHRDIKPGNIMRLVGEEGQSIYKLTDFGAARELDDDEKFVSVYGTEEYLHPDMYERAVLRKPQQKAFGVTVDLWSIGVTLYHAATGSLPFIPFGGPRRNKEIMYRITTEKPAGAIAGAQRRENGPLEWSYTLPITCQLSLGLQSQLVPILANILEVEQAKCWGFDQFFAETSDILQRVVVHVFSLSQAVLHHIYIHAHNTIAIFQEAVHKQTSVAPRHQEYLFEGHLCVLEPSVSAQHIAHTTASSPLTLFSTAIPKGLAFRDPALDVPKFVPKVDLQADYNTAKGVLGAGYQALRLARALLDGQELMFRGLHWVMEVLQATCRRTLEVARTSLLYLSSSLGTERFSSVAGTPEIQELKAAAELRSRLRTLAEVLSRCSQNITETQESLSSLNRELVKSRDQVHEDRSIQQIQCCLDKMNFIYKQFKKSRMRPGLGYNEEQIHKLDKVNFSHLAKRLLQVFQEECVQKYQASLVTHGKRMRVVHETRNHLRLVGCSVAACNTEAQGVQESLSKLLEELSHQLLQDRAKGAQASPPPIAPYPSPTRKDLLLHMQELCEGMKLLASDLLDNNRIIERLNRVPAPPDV
The assay is described as follows: IKKε biochemical assay. Conditions: 10 point 1:4 dose response, 30 uM top concentration, 90 min at 25° C., LabChip EZ Reader II; read-out: IKKε_IC50. In a few lines:
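Mobility-shift LabChip read-out followed a 90 min, 25° C. reaction of IKKε with substrate and test compound, with DMSO held at 1% final. Reactions were ended with stop buffer. Wells with 10 uM final staurosporine defined complete inhibition, and DMSO-only wells the uninhibited level.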

The next assay deals with T2, TBK1 (Homo sapiens, UniProt Q9UHD2).
T2 sequence (Q9UHD2 1-729): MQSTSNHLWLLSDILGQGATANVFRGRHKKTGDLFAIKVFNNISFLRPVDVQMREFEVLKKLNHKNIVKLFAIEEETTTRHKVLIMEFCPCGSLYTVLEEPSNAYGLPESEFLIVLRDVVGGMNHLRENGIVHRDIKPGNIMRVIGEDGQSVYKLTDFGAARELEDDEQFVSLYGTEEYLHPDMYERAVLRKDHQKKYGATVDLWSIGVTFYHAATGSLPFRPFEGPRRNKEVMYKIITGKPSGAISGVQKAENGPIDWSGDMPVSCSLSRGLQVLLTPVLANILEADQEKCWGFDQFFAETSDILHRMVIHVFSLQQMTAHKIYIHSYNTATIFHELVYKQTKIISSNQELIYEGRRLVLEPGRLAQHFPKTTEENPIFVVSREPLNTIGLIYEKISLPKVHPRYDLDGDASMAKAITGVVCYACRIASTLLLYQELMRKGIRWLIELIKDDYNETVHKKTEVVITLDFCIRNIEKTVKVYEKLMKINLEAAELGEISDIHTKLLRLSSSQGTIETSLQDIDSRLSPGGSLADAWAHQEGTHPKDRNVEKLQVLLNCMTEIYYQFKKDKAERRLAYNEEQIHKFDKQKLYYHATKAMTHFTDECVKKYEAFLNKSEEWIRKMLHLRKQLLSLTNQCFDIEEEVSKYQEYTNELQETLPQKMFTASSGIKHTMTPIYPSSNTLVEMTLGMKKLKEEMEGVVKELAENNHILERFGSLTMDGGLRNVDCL
In words: TBK biochemical assay. Conditions: 10 point 1:4 dose response, 30 uM top concentration, 90 min at 25° C., LabChip EZ Reader II; read-out: TBK1_IC50. In a few lines:
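Read-out was a Caliper LabChip mobility-shift assay, run after a 90-min, 25 °C reaction of TBK1 with substrate and compounds, quenched with stop buffer. Control wells received staurosporine at 10 uM final.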

pIC50: −log10 of the molar value.

Take `COc1nc(Nc2nccc(-c3ccc(O[C@@H]4CCN(C(=O)[C@@H](C)O)C[C@@H]4F)c(C#N)c3)n2)ccc1N1CCN(C2COC2)CC1` [Example 117, 2-[(3S,4R)-3-Fluoro-1-((R)-2-hydroxy-propionyl)-piperidin-4-yloxy]-5-{2-[6-methoxy-5-(4-oxetan-3-yl-piperazin-1-yl)-pyridin-2-ylamino]-pyrimidin-4-yl}-benzonitrile]: the pIC50 on IKKε and on TBK1 was greater than 7.00 in each case.
As to `COc1nc(Nc2nccc(-c3ccc(O[C@H]4CCNC[C@H]4F)c(C#N)c3)n2)ccc1N1CCN(C2COC2)CC1` [Example 198, 2-[[(3R,4S)-3-fluoropiperidin-4-yl]oxy]-5-[2-([6-methoxy-5-[4-(oxetan-3-yl)piperazin-1-yl]pyridin-2-yl]amino)pyrimidin-4-yl]benzonitrile], the pIC50 at IKKε and at TBK1 was greater than 7.00 throughout.
Regarding `COc1nc(Nc2nccc(-c3ccc(OC4(C)CCN(C(=O)[C@H](C)O)CC4(F)F)c(C#N)c3)n2)ccc1N1CCN(C2COC2)CC1` (stereo partly drawn) [Example 265, 2-[3,3-Difluoro-1-((S)-2-hydroxy-propionyl)-4-methyl-piperidin-4-yloxy]-5-{2-[6-methoxy-5-(4-oxetan-3-yl-piperazin-1-yl)-pyridin-2-ylamino]-pyrimidin-4-yl}-benzonitrile], the pIC50 at IKKε and on TBK1 was greater than 7.00 throughout.
Consider `COc1nc(Nc2nccc(-c3ccc(OC4CCN(C(=O)[C@@H](C)O)CC4(F)F)c(C#N)c3)n2)ccc1N1CCN(C)CC1` (stereo partly drawn) [Example 104, 2-[3,3-Difluoro-1-((R)-2-hydroxy-propionyl)-piperidin-4-yloxy]-5-{2-[6-methoxy-5-(4-methyl-piperazin-1-yl)-pyridin-2-ylamino]-pyrimidin-4-yl}-benzonitrile], for which the pIC50 on IKKε and on TBK1 was greater than 7.00 throughout.
Consider `COc1nc(Nc2nccc(-c3ccc(OC4CCN(C(=O)[C@@H](C)O)CC4(F)F)c(C#N)c3)n2)ccc1N1CCN(C2COC2)[C@@H](C)C1` (stereo partly drawn) [Example 125, 2-[3,3-Difluoro-1-((R)-2-hydroxy-propionyl)-piperidin-4-yloxy]-5-{2-[6-methoxy-5-((S)-3-methyl-4-oxetan-3-yl-piperazin-1-yl)-pyridin-2-ylamino]-pyrimidin-4-yl}-benzonitrile], for which the pIC50 on IKKε and on TBK1 was greater than 7.00 throughout.
As for `COc1nc(Nc2ncc(F)c(-c3ccc(O[C@H]4CCN(C(=O)[C@H](C)O)CC4(F)F)c(C#N)c3)n2)ccc1N1CCN(C2COC2)CC1` [Example 288, 2-[[(4S)-33-difluoro-1-[(2S)-2-hydroxypropanoyl]piperidin-4-yl]oxy]-5-[5-fluoro-2-([6-methoxy-5-[4-(oxetan-3-yl)piperazin-1-yl]pyridin-2-yl]amino)pyrimidin-4-yl]benzonitrile], the pIC50 at IKKε and on TBK1 was greater than 7.00 throughout.
For `COc1cc(N2CCN(C3COC3)CC2)cnc1Nc1nccc(-c2ccc(OC3CCN(C(=O)[C@H](C)O)CC3(F)F)c(C#N)c2)n1` (stereo partly drawn) [Example 309, 2-([3,3-difluoro-1-[(2S)-2-hydroxypropanoyl]piperidin-4-yl]oxy)-5-[2-([3-methoxy-5-[4-(oxetan-3-yl)piperazin-1-yl]pyridin-2-yl]amino)pyrimidin-4-yl]benzonitrile], the pIC50 at IKKε and at TBK1 was 6.00 to 7.00 each time.
In the case of `COc1nc(Nc2nccc(-c3ccc(OC4CCN(C(=O)[C@H](C)O)CC4(F)F)c(C#N)c3)n2)ccc1N1CCN(C)C[C@@H]1C` (stereo partly drawn) [Example 113, 2-[3,3-Difluoro-1-((S)-2-hydroxy-propionyl)-piperidin-4-yloxy]-5-{2-[5-((S)-2,4-dimethyl-piperazin-1-yl)-6-methoxy-pyridin-2-ylamino]-pyrimidin-4-yl}-benzonitrile], the pIC50 at IKKε and on TBK1 was greater than 7.00 in each case.
With `COc1nc(Nc2nccc(-c3ccc(OC4CN(C(=O)[C@H](C)O)C4)c(C#N)c3)n2)ccc1N1CCN(C2COC2)CC1` [Example 175, 2-([1-[(2S)-2-hydroxypropanoyl]azetidin-3-yl]oxy)-5-[2-([6-methoxy-5-[4-(oxetan-3-yl)piperazin-1-yl]pyridin-2-yl]amino)pyrimidin-4-yl]benzonitrile], the pIC50 on IKKε and at TBK1 was 6.00 to 7.00 in each case.
As to `COc1nc(Nc2nccc(-c3ccc(O[C@H]4CCN(C(=O)[C@H](C)O)C[C@@H]4F)c(C#N)c3)n2)ccc1C1CCN(C2COC2)CC1` [Example 189, 2-[(3S,4S)-3-Fluoro-1-((S)-2-hydroxy-propionyl)-piperidin-4-yloxy]-5-[2-(2-methoxy-1′-oxetan-3-yl-1′,2′,3′,4′,5′,6′-hexahydro-[3,4′]bipyridinyl-6-ylamino)-pyrimidin-4-yl]-benzonitrile], the pIC50 on IKKε and at TBK1 was greater than 7.00 each time.
For `COc1cc(Nc2nccc(-c3cc(C#N)c(OC4CCOCC4)cn3)n2)cnc1N1CCN(C)CC1` [Example 56, 2-(2-[[5-methoxy-6-(4-methylpiperazin-1-yl)pyridin-3-yl]amino]pyrimidin-4-yl)-5-(oxan-4-yloxy)pyridine-4-carbonitrile], the pIC50 at IKKε and on TBK1 was 6.00 to 7.00 in each case.
`CN1CCN(c2ccc(Nc3nccc(-c4ccc(OC5CCOCC5)c(C#N)c4)n3)cc2)CC1` [Example 163, 5-{2-[4-(4-Methyl-piperazin-1-yl)-phenylamino]-pyrimidin-4-yl}-2-(tetrahydro-pyran-4-yloxy)-benzonitrile]: the pIC50 at IKKε and at TBK1 was greater than 7.00 in each case.
Turning to `COc1nc(Nc2nccc(-c3ccc(NC4CCOCC4)c(C#N)c3)n2)ccc1C(=O)N(C)C` [Example 63, 6-[(4-[3-cyano-4-[(oxan-4-yl)amino]phenyl]pyrimidin-2-yl)amino]-2-methoxy-N,N-dimethylpyridine-3-carboxamide], the pIC50 at IKKε and at TBK1 was greater than 7.00 each time.
As to `COc1nc(Nc2nccc(-c3ccc(OC4CCN(C(=O)[C@@H](C)O)CC4(F)F)c(C#N)c3)n2)ccc1N1CCN(C)[C@@H](C)C1` (stereo partly drawn) [Example 102, 2-[3,3-Difluoro-1-((R)-2-hydroxy-propionyl)-piperidin-4-yloxy]-5-{2-[5-((S)-3,4-dimethyl-piperazin-1-yl)-6-methoxy-pyridin-2-ylamino]-pyrimidin-4-yl}-benzonitrile], the pIC50 on IKKε and on TBK1 was greater than 7.00 in each case.
In the case of `COc1nc(Nc2nccc(-c3ccc(OC4CCOCC4)c(C#N)c3)n2)ccc1C(=O)NC[C@H](O)CO` [Example 4, 6-{4-[3-Cyano-4-(tetrahydro-pyran-4-yloxy)-phenyl]-pyrimidin-2-ylamino}-N-((S)-23-dihydroxy-propyl)-2-methoxy-nicotinamide], the pIC50 on IKKε and at TBK1 was greater than 7.00 in each case.
Consider `COc1nc(Nc2nccc(-c3ccc(OC4CCOCC4)c(C#N)c3)n2)ccc1C(=O)N1CCNC(=O)C1` [Example 6, 5-{2-[6-methoxy-5-(3-oxo-piperazine-1-carbonyl)-pyridin-2-ylamino]-pyrimidin-4-yl}-2-(tetrahydro-pyran-4-yloxy)-benzonitrile], for which the pIC50 at IKKε and at TBK1 was greater than 7.00 throughout.
With `C[C@H](O)C(=O)N1CC[C@H](Oc2ccc(-c3nc(Nc4ccc(N5CCN(C6COC6)CC5)cc4)ncc3F)cc2C#N)[C@H](F)C1` [Example 296, 2-({3-fluoro-1-[(2S)-2-hydroxypropanoyl]piperidin-4-yl}oxy)-5-[5-fluoro-2-({4-[4-(oxetan-3-yl)piperazin-1-yl]phenyl}amino)pyrimidin-4-yl]benzonitrile], the pIC50 on IKKε and at TBK1 was greater than 7.00 throughout.

These data come from US20230019491A1, “PYRIMIDINE TBK/IKKe INHIBITOR COMPOUNDS AND USES THEREOF” (Merck Patent GmbH, priority 2017, published 2023).
